Source: the NIST ThermoML archive (doi:10.1016/j.jct.2017.03.029)
“And” between values parts separate entries of the source, which are not always exact repeats. Equal values may be shown once. Numbers after ± are expanded uncertainties.

Conditions: Transpiration method

Cc1ccc([N+](=O)[O-])cc1 [1-methyl-4-nitrobenzene]
Conditions | vapor or sublimation pressure
278.2 K, Crystal | 0.00067 ± 0.00014 kPa
279.6 K, Crystal | 0.0008 ± 0.00014 kPa
283.3 K, Crystal | 0.00113 ± 8e-05 kPa
288.2 K, Crystal | 0.00211 ± 0.00022 kPa
288.3 K, Crystal | 0.00196 ± 0.00013 kPa
290.3 K, Crystal | 0.00271 ± 0.00027 kPa
292.2 K, Crystal | 0.00326 ± 0.00029 kPa
293.2 K, Crystal | 0.00332 ± 0.00024 kPa
296.8 K, Crystal | 0.00539 ± 0.00042 kPa
298.2 K, Crystal | 0.00566 ± 0.00042 kPa
298.3 K, Crystal | 0.00599 ± 0.00047 kPa
301.4 K, Crystal | 0.00833 ± 0.00056 kPa
303.2 K, Crystal | 0.00937 ± 0.00064 kPa
304.3 K, Crystal | 0.011 ± 0.0008 kPa
307.4 K, Crystal | 0.015 ± 0.001 kPa
308.2 K, Crystal | 0.0151 ± 0.001 kPa and 0.0149 ± 0.001 kPa
310.3 K, Crystal | 0.0193 ± 0.0013 kPa
313.2 K, Crystal | 0.0252 ± 0.0017 kPa and 0.0239 ± 0.0015 kPa
314.3 K, Crystal | 0.0292 ± 0.002 kPa
315.2 K, Crystal | 0.0309 ± 0.002 kPa
315.7 K, Crystal | 0.033 ± 0.0022 kPa
316.2 K, Crystal | 0.0354 ± 0.0023 kPa
316.7 K, Crystal | 0.0359 ± 0.0023 kPa
317.2 K, Crystal | 0.0383 ± 0.0024 kPa
318.2 K, Crystal | 0.04 ± 0.0025 kPa and 0.0377 ± 0.0025 kPa
319.3 K, Crystal | 0.0438 ± 0.0029 kPa
320.3 K, Crystal | 0.0483 ± 0.0031 kPa
321.2 K, Crystal | 0.0523 ± 0.0033 kPa
322.2 K, Crystal | 0.0569 ± 0.0035 kPa
323.1 K, Crystal | 0.0544 ± 0.0036 kPa and 0.0572 ± 0.0038 kPa
323.3 K, Crystal | 0.0626 ± 0.004 kPa
324.3 K, Crystal | 0.0673 ± 0.0043 kPa
326.2 K, Liquid | 0.0797 ± 0.0049 kPa
328.1 K, Liquid | 0.0862 ± 0.0055 kPa and 0.0853 ± 0.0054 kPa
329.2 K, Liquid | 0.097 ± 0.0061 kPa
332.2 K, Liquid | 0.1207 ± 0.0075 kPa and 0.1198 ± 0.0074 kPa
333 K, Liquid | 0.117 ± 0.007 kPa and 0.113 ± 0.007 kPa
335.3 K, Liquid | 0.1411 ± 0.0089 kPa
338 K, Liquid | 0.162 ± 0.01 kPa and 0.155 ± 0.01 kPa
338.2 K, Liquid | 0.168 ± 0.011 kPa
341.2 K, Liquid | 0.1995 ± 0.012 kPa
343 K, Liquid | 0.216 ± 0.013 kPa and 0.21 ± 0.013 kPa
344.4 K, Liquid | 0.2417 ± 0.015 kPa
347.1 K, Liquid | 0.2802 ± 0.017 kPa
347.9 K, Liquid | 0.274 ± 0.018 kPa
348 K, Liquid | 0.29 ± 0.018 kPa
350.2 K, Liquid | 0.3388 ± 0.021 kPa
352.9 K, Liquid | 0.369 ± 0.031 kPa
353 K, Liquid | 0.374 ± 0.023 kPa
353.2 K, Liquid | 0.4024 ± 0.033 kPa
357.9 K, Liquid | 0.483 ± 0.03 kPa
358 K, Liquid | 0.504 ± 0.032 kPa
362.9 K, Liquid | 0.622 ± 0.039 kPa
363 K, Liquid | 0.66 ± 0.042 kPa
367.9 K, Liquid | 0.841 ± 0.052 kPa and 0.793 ± 0.049 kPa

Cc1cccc([N+](=O)[O-])c1 [3-nitrotoluene]
Liquid
Conditions | vapor or sublimation pressure
290.6 K | 0.00648 ± 0.00047 kPa
293.3 K | 0.00842 ± 0.00058 kPa
296.3 K | 0.0103 ± 0.0007 kPa
298.2 K | 0.012 ± 0.001 kPa
299.2 K | 0.0127 ± 0.0008 kPa and 0.0133 ± 0.001 kPa
302.2 K | 0.0163 ± 0.001 kPa
302.3 K | 0.0168 ± 0.001 kPa
303.2 K | 0.0176 ± 0.0012 kPa and 0.0173 ± 0.0012 kPa
305.3 K | 0.0211 ± 0.0015 kPa
308.2 K | 0.0259 ± 0.0017 kPa [middle of 4 runs]
308.3 K | 0.0267 ± 0.0017 kPa
311.4 K | 0.0335 ± 0.0022 kPa
313.2 K | 0.037 ± 0.0023 kPa and 0.0363 ± 0.0023 kPa and 0.0361 ± 0.0023 kPa
314.3 K | 0.0414 ± 0.0027 kPa
317.2 K | 0.0498 ± 0.0032 kPa
318.1 K | 0.0516 ± 0.0033 kPa
318.2 K | 0.0535 ± 0.0035 kPa and 0.0524 ± 0.0033 kPa
320.2 K | 0.0607 ± 0.0038 kPa
323.1 K | 0.0743 ± 0.0047 kPa and 0.0718 ± 0.0045 kPa
323.2 K | 0.0732 ± 0.0047 kPa and 0.0749 ± 0.0048 kPa
328.1 K | 0.103 ± 0.007 kPa
333.1 K | 0.138 ± 0.008 kPa
338 K | 0.187 ± 0.012 kPa

Cc1ccccc1[N+](=O)[O-] [2-nitrotoluene]
Liquid
Conditions | vapor or sublimation pressure
278.3 K | 0.00328 ± 0.00023 kPa
278.4 K | 0.0032 ± 0.00023 kPa
283.3 K | 0.00526 ± 0.00038 kPa and 0.00502 ± 0.00036 kPa
288.3 K | 0.00806 ± 0.00056 kPa and 0.00804 ± 0.00056 kPa
293.2 K | 0.0124 ± 0.0008 kPa and 0.0119 ± 0.0008 kPa
298.2 K | 0.0181 ± 0.0012 kPa and 0.0175 ± 0.0012 kPa
303.1 K | 0.0259 ± 0.0017 kPa
303.2 K | 0.0273 ± 0.0017 kPa
308.1 K | 0.0381 ± 0.0025 kPa
308.2 K | 0.0391 ± 0.0025 kPa
313.1 K | 0.0563 ± 0.0035 kPa and 0.0555 ± 0.0035 kPa
318 K | 0.0765 ± 0.0048 kPa
318.1 K | 0.081 ± 0.005 kPa
323 K | 0.108 ± 0.007 kPa
